# Experimental data: patent publication US20230081426A1, “COMPOUNDS AND METHODS FOR KRAS MODULATION AND INDICATIONS THEREFOR” (Plexxikon Inc., priority 2020, published 2023)
# Target: T1, G12D-mutant human KRAS (amino acid residues 1-188) (Homo sapiens, UniProt P01116, G12D)
# T1 construct: G12D or G12C-mutant human KRAS (amino acid residues 1-188) with FLAG tag; made in house; host or cells: E. coli
# Test: KRAS Binding Disruption Assay (AlphaScreen; biotinylated KRpep-2d analogue or RAF1-RBD), G12D
# Settings: KRAS G12D; geometric mean; read-out: KRAS GMean IC50 (uM) MUTATION: G12D
# Description: Compound binding disrupts the interaction of KRpep-2d or RAF1-RBD with KRAS, leading to a decrease in Alpha signal.
# All assay components were prepared in 20 mM HEPES (pH 7.5), 100 mM NaCl, 5 mM MgCl2, 0.01% Tween-20, and 0.01% BSA. Biotinylated analogues of KRpep-2d were custom synthesized. The binding disruption assays were performed using 5-20 nM of mutant KRAS and 5-20 nM of either biotinylated KRpep-2d analogue or RAF1-RBD. 19 μL of KRAS protein and 4 μL of biotinylated KRpep-2d or RAF1-RBD were added to the wells of a 384-well plate containing 1 μL of various concentrations of test compound or DMSO vehicle. 16 wells containing KRAS, biotinylated KRpep-2d or RAF1-RBD, and 5% DMSO served as high controls. 16 wells containing KRAS only and 5% DMSO served as low controls. Binding reactions were incubated for 1 hour at 25° C., then Anti-Flag Acceptor and Streptavidin Donor Alpha beads were added at a final concentration of 10 μg/mL for an additional hour at room temperature. Alpha signal was read out on a Perkin Elmer Envision HTS instrument. The percentage inhibition at individual compound concentrations relative to high and low controls was calculated. The data were analyzed by using nonlinear regression to generate IC50 values.
# T1 sequence (P01116 1-188 isoform P01116-2 G12D): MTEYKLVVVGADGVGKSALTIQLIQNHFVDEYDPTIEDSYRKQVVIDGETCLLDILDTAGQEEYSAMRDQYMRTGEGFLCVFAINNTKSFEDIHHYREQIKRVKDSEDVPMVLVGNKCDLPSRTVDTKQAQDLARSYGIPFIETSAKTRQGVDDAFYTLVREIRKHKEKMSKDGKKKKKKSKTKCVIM
row,IC50,SMILES
1,0.0001 to 10 µM,"CC(C)(CNC(=O)OCc1ccccc1)COc1nc(N2C[C@H]3CC[C@@H](C2)N3)c2ccc(-c3cc(O)cc4ccccc34)c(F)c2n1 [P-0592, benzyl (3-((4-((1R,5S)-3,8-diazabicyclo[3.2.1]octan-3-yl)-8-fluoro-7-(3-hydroxynaphthalen-1-yl)quinazolin-2-yl)oxy)-2,2-dimethylpropyl)carbamate]"
2,0.0001 to 10 µM,"Oc1cc(-c2ccc3c(N4C[C@H]5CC[C@@H](C4)N5)nc(OCC4CCOC4)nc3c2)c2ccccc2c1 (stereo partly drawn) [P-0081, 4-(4-((1R,5S)-3,8-diazabicyclo[3.2.1]octan-3-yl)-2-((tetrahydrofuran-3-yl)methoxy)quinazolin-7-yl)naphthalen-2-ol]"
3,10 to 100 µM,"Oc1cc(-c2nc(N3C[C@H]4CC[C@@H](C3)N4)c3ccc(-c4cc(O)cc5ccccc45)c(F)c3n2)c2ccccc2c1 [P-0562, 4,4′-(4-((1R,5S)-3,8-diazabicyclo[3.2.1]octan-3-yl)-8-fluoroquinazoline-2,7-diyl)bis(naphthalen-2-ol)]"
4,0.0001 to 10 µM,"CN(C)CC(C)(C)COc1nc(N2C[C@H]3CC[C@@H](C2)N3)c2ccc(-c3cc(O)cc4ccccc34)c(F)c2n1 [P-0589, 4-(4-((1R,5S)-3,8-diazabicyclo[3.2.1]octan-3-yl)-2-(3-(dimethylamino)-2,2-dimethylpropoxy)-8-fluoroquinazolin-7-yl)naphthalen-2-ol]"
5,0.0001 to 10 µM,CC(=O)c1c(F)ccc2[nH]cc(-c3ccc4c(N5C[C@H]6CC[C@@H](C5)N6)nc(OCC56CCCN5CCC6)nc4c3F)c12 [P-0514]
6,0.0001 to 10 µM,"Oc1cc(-c2ccc3c(N4C[C@H]5CC[C@@H](C4)N5)nc(N4CCC5(CCOC5)C4)nc3c2F)c2ccccc2c1 (stereo partly drawn) [P-0528, 4-(4-((1R,5S)-3,8-diazabicyclo[3.2.1]octan-3-yl)-8-fluoro-2-(2-oxa-7-azaspiro[4.4]nonan-7-yl)quinazolin-7-yl)naphthalen-2-ol]"
7,0.0001 to 10 µM,Fc1c(-c2csc3cccc(Cl)c23)ccc2c(N3C[C@H]4CC[C@@H](C3)N4)nc(OCC34CCCN3CCC4)nc12 [P-0534]
8,0.0001 to 10 µM,"Oc1cc(-c2ccc3c(N4C[C@H]5CC[C@@H](C4)N5)nc(OCC4(C(F)(F)F)CC4)nc3c2F)c2ccccc2c1 [P-0536, 4-(4-((1R,5S)-3,8-diazabicyclo[3.2.1]octan-3-yl)-8-fluoro-2-((1-(trifluoromethyl)cyclopropyl)methoxy)quinazolin-7-yl)naphthalen-2-ol]"
9,0.0001 to 10 µM,"CCN(CC)C1CCN(c2nc(N3C[C@H]4CC[C@@H](C3)N4)c3ccc(-c4cc(O)cc5ccccc45)c(F)c3n2)C1 (stereo partly drawn) [P-0530, 4-(4-((1R,5S)-3,8-diazabicyclo[3.2.1]octan-3-yl)-2-(3-(diethylamino)pyrrolidin-1-yl)-8-fluoroquinazolin-7-yl)naphthalen-2-ol]"
10,0.0001 to 10 µM,"CC(=O)c1cccc2cccc(-c3ccc4c(N5C[C@H]6CC[C@@H](C5)N6)nc(OCC56CCCN5CCC6)nc4c3F)c12 [P-0522, 1-(8-(4-((1R,5S)-3,8-diazabicyclo[3.2.1]octan-3-yl)-8-fluoro-2-((tetrahydro-1H-pyrrolizin-7a(5H)-yl)methoxy)quinazolin-7-yl)naphthalen-1-yl)ethan-1-one]"
11,0.0001 to 10 µM,"Oc1cc(-c2ccc3c(N4C[C@H]5CC[C@@H](C4)N5)nc(N4CC5CCNCC5C4)nc3c2F)c2ccccc2c1 (stereo partly drawn) [P-0509, 4-(4-((1R,5S)-3,8-diazabicyclo[3.2.1]octan-3-yl)-8-fluoro-2-(octahydro-2H-pyrrolo[3,4-c]pyridin-2-yl)quinazolin-7-yl)naphthalen-2-ol]"
12,0.0001 to 10 µM,"CC(C)(CNC(=O)CO)COc1nc(N2C[C@H]3CC[C@@H](C2)N3)c2ccc(-c3cc(O)cc4ccccc34)c(F)c2n1 [P-0537, N-(3-((4-((1R,5S)-3,8-diazabicyclo[3.2.1]octan-3-yl)-8-fluoro-7-(3-hydroxynaphthalen-1-yl)quinazolin-2-yl)oxy)-2,2-dimethylpropyl)-2-hydroxyacetamide]"

# Continued, compound first:
row,SMILES,IC50
1,"OCC1(CNc2nc(N3C[C@H]4CC[C@@H](C3)N4)c3ccc(-c4cc(O)cc5ccccc45)c(F)c3n2)CCC1 [P-0587, 4-(4-((1R,5S)-3,8-diazabicyclo[3.2.1]octan-3-yl)-8-fluoro-2-(((1-(hydroxymethyl)cyclobutyl)methyl)amino)quinazolin-7-yl)naphthalen-2-ol]",0.0001 to 10 µM
2,"Fc1c(-c2c[nH]c3cncc(Cl)c23)ccc2c(N3C[C@H]4CC[C@@H](C3)N4)nc(OCC34CCCN3CCC4)nc12 [P-0566, 4-((1R,5S)-3,8-diazabicyclo[3.2.1]octan-3-yl)-7-(4-chloro-1H-pyrrolo[2,3-c]pyridin-3-yl)-8-fluoro-2-((tetrahydro-1H-pyrrolizin-7a(5H)-yl)methoxy)quinazoline]",0.0001 to 10 µM
3,"COCCc1cccc2[nH]cc(-c3ccc4c(N5C[C@H]6CC[C@@H](C5)N6)nc(OCC56CCCN5CCC6)nc4c3F)c12 [P-0573, 4-((1R,5S)-3,8-diazabicyclo[3.2.1]octan-3-yl)-8-fluoro-7-(4-(2-methoxyethyl)-1H-indol-3-yl)-2-((tetrahydro-1H-pyrrolizin-7a(5H)-yl)methoxy)quinazoline]",0.0001 to 10 µM
4,"CNCC1CN(c2nc(N3C[C@H]4CC[C@@H](C3)N4)c3ccc(-c4cc(O)cc5ccccc45)c(F)c3n2)C1 [P-0557, 4-(4-((1R,5S)-3,8-diazabicyclo[3.2.1]octan-3-yl)-8-fluoro-2-(3-((methylamino)methyl)azetidin-1-yl)quinazolin-7-yl)naphthalen-2-ol]",0.0001 to 10 µM
5,"Oc1cc(-c2ccc3c(N4C[C@H]5CC[C@@H](C4)N5Cc4ccccc4)nc(OCC45CCCN4CCC5)nc3c2)c2ccccc2c1 [P-0018, 4-(4-((1R,5S)-8-benzyl-3,8-diazabicyclo[3.2.1]octan-3-yl)-2-((tetrahydro-1H-pyrrolizin-7a(5H)-yl)methoxy)quinazolin-7-yl)naphthalen-2-ol]",0.0001 to 10 µM
6,"O=C(CO)C1(O)CN(c2nc(N3C[C@H]4CC[C@@H](C3)N4)c3ccc(-c4cc(O)cc5ccccc45)c(F)c3n2)C1 [P-0507, 1-(1-(4-((1R,5S)-3,8-diazabicyclo[3.2.1]octan-3-yl)-8-fluoro-7-(3-hydroxynaphthalen-1-yl)quinazolin-2-yl)-3-hydroxyazetidin-3-yl)-2-hydroxyethan-1-one]",0.0001 to 10 µM
7,"CCC1(N)CN(c2nc(N3C[C@H]4CC[C@@H](C3)N4)c3ccc(-c4cc(O)cc5ccccc45)c(F)c3n2)C1 [P-0578, 4-(2-(3-amino-3-ethylazetidin-1-yl)-4-((1R,5S)-3,8-diazabicyclo[3.2.1]octan-3-yl)-8-fluoroquinazolin-7-yl)naphthalen-2-ol]",0.0001 to 10 µM
8,"OCC1(COc2nc(N3C[C@H]4CC[C@@H](C3)N4)c3ccc(-c4cc(O)cc5ccccc45)c(F)c3n2)CC(O)C1 (stereo partly drawn) [P-0583, 4-(4-((1R,5S)-3,8-diazabicyclo[3.2.1]octan-3-yl)-8-fluoro-2-((3-hydroxy-1-(hydroxymethyl)cyclobutyl)methoxy)quinazolin-7-yl)naphthalen-2-ol]",0.0001 to 10 µM
9,"CCc1cc(F)cc2[nH]cc(-c3ccc4c(N5C[C@H]6CC[C@@H](C5)N6)nc(OCC56CCCN5CCC6)nc4c3F)c12 [P-0535, 4-((1R,5S)-3,8-diazabicyclo[3.2.1]octan-3-yl)-7-(4-ethyl-6-fluoro-1H-indol-3-yl)-8-fluoro-2-((tetrahydro-1H-pyrrolizin-7a(5H)-yl)methoxy)quinazoline]",0.0001 to 10 µM
10,"O=[N+]([O-])c1cccc2cncc(-c3ccc4c(N5C[C@H]6CC[C@@H](C5)N6)nc(OCC56CCCN5CCC6)nc4c3F)c12 [P-0539, 4-((1R,5S)-3,8-diazabicyclo[3.2.1]octan-3-yl)-8-fluoro-7-(5-nitroisoquinolin-4-yl)-2-((tetrahydro-1H-pyrrolizin-7a(5H)-yl)methoxy)quinazoline]",0.0001 to 10 µM
11,"CN1CCOC[C@H]1COc1nc(N2C[C@H]3CC[C@@H](C2)N3)c2ccc(-c3cc(O)cc4ccccc34)cc2n1 [P-0084, 4-(4-((1R,5S)-3,8-diazabicyclo[3.2.1]octan-3-yl)-2-(((S)-4-methylmorpholin-3-yl)methoxy)quinazolin-7-yl)naphthalen-2-ol]",0.0001 to 10 µM
12,"C=Cc1cccc2cccc(-c3ccc4c(N5C[C@H]6CC[C@@H](C5)N6)nc(OCC56CCCN5CCC6)nc4c3F)c12 [P-0538, 4-((1R,5S)-3,8-diazabicyclo[3.2.1]octan-3-yl)-8-fluoro-2-((tetrahydro-1H-pyrrolizin-7a(5H)-yl)methoxy)-7-(8-vinylnaphthalen-1-yl)quinazoline]",0.0001 to 10 µM
13,"CCc1cccc2c1N(c1ccc3c(N4C[C@H]5CC[C@@H](C4)N5)nc(OCC45CCCN4CCC5)nc3c1F)CCC2 [P-0559, 4-((1R,5S)-3,8-diazabicyclo[3.2.1]octan-3-yl)-7-(8-ethyl-3,4-dihydroquinolin-1(2H)-yl)-8-fluoro-2-((tetrahydro-1H-pyrrolizin-7a(5H)-yl)methoxy)quinazoline]",0.0001 to 10 µM

# Same assay, conditions: Table 3; geometric mean; bridged vs non-bridged R1; read-out: KRAS GMean IC50 (uM) MUTATION: G12D
row,IC50,SMILES
1,1.11 µM,"CN1CCC[C@H]1COc1nc(N2CCNCC2)c2cc(Cl)c(-c3cc(O)cc4ccccc34)c(F)c2n1 [Non-bridged version of P-0001, reference compound]"
